In article PMC8333425, “Discovery of a dual Ras and ARF6 inhibitor from a GPCR endocytosis screen” (Nature Communications, 2021):

Legend:
Assay in all cases: KINOMEscan kinase binding assay
[1] = target: T1, 384 kinases from the human genome (Homo sapiens, UniProt P30291); settings: kinase WEE1 (Entrez WEE1)
T1 construct: purchased Eurofin/DiscoverX
Summary of the method: (§1)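 Competition binding (KINOMEscan) across 384 human kinases with compound at 10 µM. Ligand binding was expressed relative to DMSO (100%) as the average of duplicates from one experiment. S(10) selectivity score was derived.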

[2] = target: T2, 384 kinases from the human genome (Homo sapiens, UniProt O43683); settings: kinase BUB1 (Entrez BUB1)
T2 construct: purchased Eurofin/DiscoverX
Summary of the method: as §1

[3] = target: T3, 384 kinases from the human genome (Homo sapiens, UniProt P41240); settings: kinase CSK (Entrez CSK)
T3 construct: purchased Eurofin/DiscoverX
Summary of the method: as §1

[4] = target: T4, 384 kinases from the human genome (Homo sapiens, UniProt P31751); settings: kinase AKT2 (Entrez AKT2)
T4 construct: purchased Eurofin/DiscoverX
Summary of the method: as §1

[5] = target: T5, 384 kinases from the human genome (Homo sapiens, UniProt P42345); settings: kinase MTOR (Entrez MTOR)
T5 construct: purchased Eurofin/DiscoverX
Summary of the method: as §1

[6] = target: T6, 384 kinases from the human genome (Homo sapiens, UniProt O60331); settings: kinase PIP5K1C (Entrez PIP5K1C)
T6 construct: purchased Eurofin/DiscoverX
Summary of the method: as §1

[7] = target: T7, 384 kinases from the human genome (Homo sapiens, UniProt Q9P286); settings: kinase PAK7 (Entrez PAK7)
T7 construct: purchased Eurofin/DiscoverX
Summary of the method: as §1

[8] = target: T8, 384 kinases from the human genome (Homo sapiens, UniProt Q8TD08); settings: kinase ERK8 (Entrez MAPK15)
T8 construct: purchased Eurofin/DiscoverX
Summary of the method: as §1

[9] = target: T9, 384 kinases from the human genome (Homo sapiens, UniProt Q96Q40); settings: kinase PFTAIRE2 (Entrez CDK15)
T9 construct: purchased Eurofin/DiscoverX
Summary of the method: as §1

[10] = target: T10, 384 kinases from the human genome (Homo sapiens, UniProt Q15759); settings: kinase p38-beta (Entrez MAPK11)
T10 construct: purchased Eurofin/DiscoverX
Summary of the method: as §1

[11] = target: T11, 384 kinases from the human genome (Homo sapiens, UniProt P30530); settings: kinase AXL (Entrez AXL)
T11 construct: purchased Eurofin/DiscoverX
Summary of the method: as §1

[12] = target: T12, 384 kinases from the human genome (Homo sapiens, UniProt Q12852); settings: kinase DLK (Entrez MAP3K12)
T12 construct: purchased Eurofin/DiscoverX
Summary of the method: as §1

[13] = target: T13, 384 kinases from the human genome (Homo sapiens, UniProt P42336); settings: kinase PIK3CA (Entrez PIK3CA)
T13 construct: purchased Eurofin/DiscoverX
Summary of the method: as §1

[14] = target: T14, 384 kinases from the human genome (Homo sapiens, UniProt Q13153); settings: kinase PAK1 (Entrez PAK1)
T14 construct: purchased Eurofin/DiscoverX
Summary of the method: as §1

[15] = target: T15, 384 kinases from the human genome (Homo sapiens, UniProt Q8TDC3); settings: kinase BRSK1 (Entrez BRSK1)
T15 construct: purchased Eurofin/DiscoverX
Summary of the method: as §1

[16] = target: T16, 384 kinases from the human genome (Homo sapiens, UniProt P04629); settings: kinase TRKA (Entrez NTRK1)
T16 construct: purchased Eurofin/DiscoverX
Summary of the method: as §1

[17] = target: T17, 384 kinases from the human genome (Homo sapiens, UniProt O75716); settings: kinase STK16 (Entrez STK16)
T17 construct: purchased Eurofin/DiscoverX
Summary of the method: as §1

[18] = target: T18, 384 kinases from the human genome (Homo sapiens, UniProt Q7L7X3); settings: kinase TAOK1 (Entrez TAOK1)
T18 construct: purchased Eurofin/DiscoverX
Summary of the method: as §1

[19] = target: T19, 384 kinases from the human genome (Homo sapiens, UniProt P36897); settings: kinase TGFBR1 (Entrez TGFBR1)
T19 construct: purchased Eurofin/DiscoverX
Summary of the method: as §1

[20] = target: T20, 384 kinases from the human genome (Homo sapiens, UniProt O43283); settings: kinase LZK (Entrez MAP3K13)
T20 construct: purchased Eurofin/DiscoverX
Summary of the method: as §1

[21] = target: T21, 384 kinases from the human genome (Homo sapiens, UniProt O94806); settings: kinase PRKD3 (Entrez PRKD3)
T21 construct: purchased Eurofin/DiscoverX
Summary of the method: as §1

[22] = target: T22, 384 kinases from the human genome (Homo sapiens, UniProt Q8N568); settings: kinase DCAMKL2 (Entrez DCLK2)
T22 construct: purchased Eurofin/DiscoverX
Summary of the method: as §1

[23] = target: T23, 384 kinases from the human genome (Homo sapiens, UniProt Q9UQB9); settings: kinase AURKC (Entrez AURKC)
T23 construct: purchased Eurofin/DiscoverX
Summary of the method: as §1

[24] = target: T24, 384 kinases from the human genome (Homo sapiens, UniProt Q92630); settings: kinase DYRK2 (Entrez DYRK2)
T24 construct: purchased Eurofin/DiscoverX
Summary of the method: as §1

[25] = target: T25, 384 kinases from the human genome (Homo sapiens, UniProt P17612); settings: kinase PKAC-alpha (Entrez PRKACA)
T25 construct: purchased Eurofin/DiscoverX
Summary of the method: as §1

[26] = target: T26, 384 kinases from the human genome (Homo sapiens, UniProt Q59H18); settings: kinase TNNI3K (Entrez TNNI3K)
T26 construct: purchased Eurofin/DiscoverX
Summary of the method: as §1

T16 sequence (P04629 33-796): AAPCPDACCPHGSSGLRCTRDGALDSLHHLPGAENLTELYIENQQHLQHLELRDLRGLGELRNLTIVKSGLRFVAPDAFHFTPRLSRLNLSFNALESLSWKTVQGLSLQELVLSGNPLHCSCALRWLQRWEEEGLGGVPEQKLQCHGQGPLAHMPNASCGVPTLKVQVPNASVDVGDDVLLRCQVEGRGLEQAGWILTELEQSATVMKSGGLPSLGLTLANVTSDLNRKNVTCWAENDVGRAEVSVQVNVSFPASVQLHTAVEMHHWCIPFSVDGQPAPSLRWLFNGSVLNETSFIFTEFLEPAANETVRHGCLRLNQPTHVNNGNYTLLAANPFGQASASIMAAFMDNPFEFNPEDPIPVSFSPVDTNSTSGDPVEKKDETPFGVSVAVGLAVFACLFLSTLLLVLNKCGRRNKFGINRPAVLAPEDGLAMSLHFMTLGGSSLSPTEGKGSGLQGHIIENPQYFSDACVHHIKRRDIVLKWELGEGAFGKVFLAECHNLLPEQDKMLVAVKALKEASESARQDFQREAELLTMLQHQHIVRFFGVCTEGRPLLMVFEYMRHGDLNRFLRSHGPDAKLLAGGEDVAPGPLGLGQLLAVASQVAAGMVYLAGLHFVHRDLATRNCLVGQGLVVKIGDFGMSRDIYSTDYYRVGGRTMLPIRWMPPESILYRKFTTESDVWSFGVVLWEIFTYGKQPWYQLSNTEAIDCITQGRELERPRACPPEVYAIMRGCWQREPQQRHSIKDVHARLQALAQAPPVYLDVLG
T24 sequence (Q92630 whole entry): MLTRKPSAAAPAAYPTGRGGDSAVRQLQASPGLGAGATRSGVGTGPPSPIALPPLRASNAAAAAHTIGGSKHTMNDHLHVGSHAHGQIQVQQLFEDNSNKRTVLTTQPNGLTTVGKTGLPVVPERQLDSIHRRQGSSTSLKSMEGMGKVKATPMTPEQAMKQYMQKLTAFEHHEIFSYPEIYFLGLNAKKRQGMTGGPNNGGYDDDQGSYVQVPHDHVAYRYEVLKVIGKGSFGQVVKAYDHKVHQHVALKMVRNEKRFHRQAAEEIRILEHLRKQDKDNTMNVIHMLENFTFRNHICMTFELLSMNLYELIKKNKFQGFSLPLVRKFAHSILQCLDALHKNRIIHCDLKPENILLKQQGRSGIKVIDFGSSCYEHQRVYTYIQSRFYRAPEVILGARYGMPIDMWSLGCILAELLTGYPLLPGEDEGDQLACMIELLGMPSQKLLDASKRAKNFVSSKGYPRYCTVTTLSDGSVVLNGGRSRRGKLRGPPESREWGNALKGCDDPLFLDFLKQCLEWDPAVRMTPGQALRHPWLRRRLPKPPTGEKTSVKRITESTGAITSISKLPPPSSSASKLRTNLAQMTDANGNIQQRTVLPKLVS
T13 sequence (P42336 whole entry): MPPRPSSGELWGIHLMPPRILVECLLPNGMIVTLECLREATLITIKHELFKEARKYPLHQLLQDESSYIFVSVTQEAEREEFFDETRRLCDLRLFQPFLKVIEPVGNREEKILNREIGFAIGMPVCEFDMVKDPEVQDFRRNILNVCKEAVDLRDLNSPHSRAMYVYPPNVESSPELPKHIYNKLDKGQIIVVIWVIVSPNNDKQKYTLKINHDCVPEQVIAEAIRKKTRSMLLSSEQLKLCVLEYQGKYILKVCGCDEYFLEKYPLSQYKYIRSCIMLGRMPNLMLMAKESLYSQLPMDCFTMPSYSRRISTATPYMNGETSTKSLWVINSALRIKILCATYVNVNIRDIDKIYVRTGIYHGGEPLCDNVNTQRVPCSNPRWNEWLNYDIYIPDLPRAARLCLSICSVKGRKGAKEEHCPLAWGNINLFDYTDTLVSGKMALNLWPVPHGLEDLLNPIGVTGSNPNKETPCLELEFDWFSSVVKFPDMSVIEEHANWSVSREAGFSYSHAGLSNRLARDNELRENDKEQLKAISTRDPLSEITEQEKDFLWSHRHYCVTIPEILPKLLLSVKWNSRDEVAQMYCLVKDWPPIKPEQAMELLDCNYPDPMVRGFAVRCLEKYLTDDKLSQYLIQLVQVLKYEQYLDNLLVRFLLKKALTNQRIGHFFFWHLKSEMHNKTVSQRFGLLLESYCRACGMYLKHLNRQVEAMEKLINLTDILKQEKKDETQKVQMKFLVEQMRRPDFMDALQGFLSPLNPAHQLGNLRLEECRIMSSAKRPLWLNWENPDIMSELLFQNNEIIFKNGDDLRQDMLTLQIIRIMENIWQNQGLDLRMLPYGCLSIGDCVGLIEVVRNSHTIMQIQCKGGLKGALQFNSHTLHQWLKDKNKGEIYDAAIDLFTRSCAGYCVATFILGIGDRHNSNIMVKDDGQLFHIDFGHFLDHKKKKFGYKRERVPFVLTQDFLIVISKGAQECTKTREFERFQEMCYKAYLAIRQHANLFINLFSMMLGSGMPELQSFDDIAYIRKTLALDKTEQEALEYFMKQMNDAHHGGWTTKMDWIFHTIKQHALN
T14 sequence (Q13153 whole entry): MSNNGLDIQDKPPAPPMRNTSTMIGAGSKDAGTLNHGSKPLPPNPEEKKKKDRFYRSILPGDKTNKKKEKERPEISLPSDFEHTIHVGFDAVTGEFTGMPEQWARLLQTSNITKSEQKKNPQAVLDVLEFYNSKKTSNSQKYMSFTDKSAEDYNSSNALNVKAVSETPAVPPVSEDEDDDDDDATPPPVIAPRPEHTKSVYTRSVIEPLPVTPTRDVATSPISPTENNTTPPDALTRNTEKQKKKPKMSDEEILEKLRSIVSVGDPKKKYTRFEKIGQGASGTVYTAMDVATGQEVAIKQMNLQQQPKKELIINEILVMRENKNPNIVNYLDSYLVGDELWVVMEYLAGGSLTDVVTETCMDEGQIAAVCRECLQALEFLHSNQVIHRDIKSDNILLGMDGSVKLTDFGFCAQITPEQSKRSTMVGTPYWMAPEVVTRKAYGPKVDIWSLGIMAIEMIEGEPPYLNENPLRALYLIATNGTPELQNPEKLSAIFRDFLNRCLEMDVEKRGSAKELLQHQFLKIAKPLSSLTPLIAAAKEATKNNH
T20 sequence (O43283 whole entry): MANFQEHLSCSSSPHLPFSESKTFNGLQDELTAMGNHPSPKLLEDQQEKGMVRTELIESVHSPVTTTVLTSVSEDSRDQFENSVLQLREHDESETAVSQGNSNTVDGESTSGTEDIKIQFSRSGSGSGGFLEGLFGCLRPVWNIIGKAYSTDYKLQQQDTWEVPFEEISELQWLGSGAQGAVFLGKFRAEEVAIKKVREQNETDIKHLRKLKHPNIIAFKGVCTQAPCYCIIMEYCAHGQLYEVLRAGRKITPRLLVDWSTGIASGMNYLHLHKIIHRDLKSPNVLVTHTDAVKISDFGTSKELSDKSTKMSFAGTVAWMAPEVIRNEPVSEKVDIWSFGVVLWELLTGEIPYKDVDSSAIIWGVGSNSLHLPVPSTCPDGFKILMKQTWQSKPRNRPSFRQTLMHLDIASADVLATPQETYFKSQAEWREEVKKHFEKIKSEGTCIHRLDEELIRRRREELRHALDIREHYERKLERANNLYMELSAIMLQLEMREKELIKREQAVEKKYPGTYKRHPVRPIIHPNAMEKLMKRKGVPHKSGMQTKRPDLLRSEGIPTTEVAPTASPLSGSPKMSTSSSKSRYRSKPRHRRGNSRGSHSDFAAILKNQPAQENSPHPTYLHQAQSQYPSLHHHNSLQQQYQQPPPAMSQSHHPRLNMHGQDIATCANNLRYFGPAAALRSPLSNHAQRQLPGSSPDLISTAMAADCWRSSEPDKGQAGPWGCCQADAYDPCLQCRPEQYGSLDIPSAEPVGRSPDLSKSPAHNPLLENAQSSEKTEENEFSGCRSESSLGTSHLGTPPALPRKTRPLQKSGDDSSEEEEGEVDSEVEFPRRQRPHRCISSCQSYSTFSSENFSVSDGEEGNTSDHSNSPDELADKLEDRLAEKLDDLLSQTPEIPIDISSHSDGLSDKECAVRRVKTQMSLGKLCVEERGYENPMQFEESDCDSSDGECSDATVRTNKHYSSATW
T26 sequence (Q59H18 whole entry): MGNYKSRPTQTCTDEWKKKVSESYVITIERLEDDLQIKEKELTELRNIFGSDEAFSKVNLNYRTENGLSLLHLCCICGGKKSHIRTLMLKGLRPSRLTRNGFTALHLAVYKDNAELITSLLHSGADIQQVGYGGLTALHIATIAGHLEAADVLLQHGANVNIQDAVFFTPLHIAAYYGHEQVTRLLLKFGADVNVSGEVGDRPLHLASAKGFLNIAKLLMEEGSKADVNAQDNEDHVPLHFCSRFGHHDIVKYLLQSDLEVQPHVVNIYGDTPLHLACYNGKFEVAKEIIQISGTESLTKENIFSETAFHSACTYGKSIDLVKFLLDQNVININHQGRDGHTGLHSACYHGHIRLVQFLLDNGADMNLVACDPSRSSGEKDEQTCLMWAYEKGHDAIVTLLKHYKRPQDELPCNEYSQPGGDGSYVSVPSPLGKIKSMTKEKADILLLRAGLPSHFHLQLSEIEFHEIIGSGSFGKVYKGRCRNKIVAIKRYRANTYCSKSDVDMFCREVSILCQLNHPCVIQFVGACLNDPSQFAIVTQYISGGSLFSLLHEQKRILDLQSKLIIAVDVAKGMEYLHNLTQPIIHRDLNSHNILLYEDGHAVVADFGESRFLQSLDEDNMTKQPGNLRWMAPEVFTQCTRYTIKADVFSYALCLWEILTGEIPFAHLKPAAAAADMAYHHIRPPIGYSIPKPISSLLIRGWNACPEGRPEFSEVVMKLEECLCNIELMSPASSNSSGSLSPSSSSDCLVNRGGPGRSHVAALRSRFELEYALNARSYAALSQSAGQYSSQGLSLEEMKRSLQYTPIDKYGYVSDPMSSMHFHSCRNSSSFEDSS

**Q.** What does the source list for `CC(C)C(=O)N1CCN(c2ccc(NC(=O)c3cc4ccccc4o3)cc2Cl)CC1` [Compound 21]?
**A.** Percent Control [1]: 98%; Percent Control [2]: 99%; Percent Control [3]: 97%; Percent Control [4]: 100%; Percent Control [5]: 65%; Percent Control [6]: 100%; Percent Control [7]: 85%; Percent Control [8]: 100%; Percent Control [9]: 100%; Percent Control [10]: 80%; Percent Control [11]: 69%; Percent Control [12]: 100%; Percent Control [13]: 100%; Percent Control [14]: 92%; Percent Control [15]: 99%; Percent Control [16]: 14%; Percent Control [17]: 100%; Percent Control [18]: 100%; Percent Control [19]: 79%; Percent Control [20]: 100%; Percent Control [21]: 98%; Percent Control [22]: 99%; Percent Control [23]: 87%; Percent Control [24]: 94%; Percent Control [25]: 97%; Percent Control [26]: 70%
